Experimental data from publication PMC6563049, “Radiosynthesis of (R,S)‐[^18F]GE387: A Potential PET Radiotracer for Imaging Translocator Protein 18 kDa (TSPO) with Low Binding Sensitivity to the Human Gene Polymorphism rs6971” (Chemmedchem, 2019).
Where two headings read alike, the source gives them in different places.

Legend:
human TSPO wild‐type = molecular target: T1, human TSPO wild‐type (Homo sapiens, UniProt P30536); experiment: Radioligand ([^3H]1) displacement binding on membranes of HEK cells stably transfected with wild-type TSPO; settings: HEK cell membranes, [^3H]1 10 nM, 4 °C, 90 min; mean±SEM, n=3; read-out: Ki (nM) at WT (Ala/Ala) HAB
T1 construct: expressed in transfected cells; host or cells: HEK cells, stably transfected; membranes
Method: (§1) Binding affinities were measured as per our published protocol.21 Briefly, an Ultra‐Turrax homogeniser was used to prepare membranes from HEK cells stably transfected with wild‐type and A147T TSPO. […] Reactions were terminated by filtration through a 96‐well glass‐fibre filter plate (Millipore), and washed eight times with ice‐cold 50 mM Tris⋅HCl. Microscint 0 was added to the dry filters, and radioactivity read in a Microbeta^2 2450 Microplate Counter (PerkinElmer). Data were analysed using GraphPad Prism 6.0, and a four‐parameter nonlinear regression curve fit was used to calculate K i values. Data are expressed as the mean±SEM from at least three independent experiments.

TSPO A147T [1] = molecular target: T2, TSPO A147T (Homo sapiens, UniProt P30536); experiment: Radioligand ([^3H]1) displacement binding on membranes of HEK cells stably transfected with A147T TSPO
T2 construct: expressed in transfected cells; host or cells: HEK cells, stably transfected; membranes
Method: as §1, with “Microscint 0 was added to the dry filters, and radioactivity read in a Microbeta^2 2450 Microplate Counter (PerkinElmer).” left out

TSPO A147T [2] = experiment: as above; design: species or system human; settings: for Ratio LAB/HAB: Ki at A147T TSPO / Ki at wild-type TSPO
Method: as §1, with “Microscint 0 was added to the dry filters, and radioactivity read in a Microbeta^2 2450 Microplate Counter (PerkinElmer).” left out

rat heart TSPO = molecular target: rat heart TSPO; design: method as in earlier work; settings: read-out: affinity, rat heart TSPO assay; cited from earlier work
[3] = design: method as in PMID 26697963, PMID 26551697, PMID 29114179; settings: cited from earlier work
[4] = In vivo PET imaging of the brain in healthy rats; settings: healthy male Wistar rats, i.v. tracer injection, 60 min acquisition, n=2
Method: The time–activity curve indicates distribution of radioactivity in the brain, albeit in a modest amount as the investigated animals were healthy.
Male Wistar rats (n=2; weight: 230 and 302 g) were obtained from Charles River Laboratories, UK. The rats were housed in Techniplast 2000P IVC cages on a layer of Aspen bedding in a room with constant temperature (21±2 °C) and fixed 12 h light–dark regime (lights on at 7:00 am). Food and water were available ad libitum. After arrival, the rats were allowed to acclimatise for at least seven days. This research was regulated under the Animals (Scientific Procedures) Act 1986 Amendment Regulations 2012 following ethical review by the University of Cambridge Animal Welfare and Ethical Review Body (AWERB).
Prior to scanning, the animals were anaesthetised using isofluorane at a concentration of 5 % in O2, and anaesthesia was maintained at 1.5–2.5 % isofluorane in O2. The femoral vein was cannulated for tracer injection. […]
Three‐dimensional regions of interest (ROIs) were drawn over the whole brain on an MRI template using PMOD software (version 3.2; PMOD technologies, Zurich, Switzerland). […] The results were expressed as dimensionless standardised uptake values (SUV=[(tissue activity)×(body weight)]/injected dose). SUVs were calculated assuming a specific gravity of 1 g mL^−1 for brain tissue.

TSPO A147T [5] = test system: TSPO A147T; design: method as in PMID 30108706; settings: cited from earlier work
TSPO [6] = settings: cited from earlier work
TSPO [7] = test system: TSPO; design: method as in PMID 22244939; settings: rats; cited from earlier work

T1 sequence (P30536 whole entry T147A): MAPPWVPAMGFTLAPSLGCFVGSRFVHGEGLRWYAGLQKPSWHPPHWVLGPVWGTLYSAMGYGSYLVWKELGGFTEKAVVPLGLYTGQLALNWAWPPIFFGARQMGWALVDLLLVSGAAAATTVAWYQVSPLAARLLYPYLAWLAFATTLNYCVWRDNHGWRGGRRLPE
T2 sequence (P30536 whole entry, stated change not applied): as the sequence (P30536 whole entry T147A) above, with A147T counted along it

Structure (SMILES): CCN(Cc1ccccc1)C(=O)[C@H]1CCCc2c1c1c(OC)cccc1n2CCF [(S)-6, N ‐Benzyl‐N‐ethyl‐9‐(2‐fluoroethyl)‐5‐methoxy‐2,3,4,9‐tetrahydro‐1H‐carbazole‐4‐carboxamide]
- Ki (human TSPO wild‐type): 36.3 ± 6.9 nM
- Ki (TSPO A147T [1]): 47.3 ± 7 nM
- Ratio LAB/HAB (TSPO A147T [2]): 1.3
- Ki (rat heart TSPO): 1.04 nM

Structure (SMILES): CC[C@@H](C)N(C)C(=O)c1cc2ccccc2c(-c2ccccc2Cl)n1 [[^11C]1, R‐1‐(2‐chlorophenyl)‐N‐methyl‐N‐(1‐methylpropyl)‐3‐isoquinoline carboxamide]
- brain permeability [3]: low brain permeability

Structure (SMILES): CCN(Cc1ccccc1)C(=O)C1CCCc2c1c1c(OC)cccc1n2CC[18F] (racemic) [racemic [^18F]6]
- entry of radioactivity into the brain (PET) [4]: enters the brain

Structure (SMILES): CCN(Cc1ccccc1)C(=O)C1CCCc2c1c1c(OC)cccc1n2CCF (racemic) [compound 6, N ‐Benzyl‐N‐ethyl‐9‐(2‐fluoroethyl)‐5‐methoxy‐2,3,4,9‐tetrahydro‐1H‐carbazole‐4‐carboxamide]
- sensitivity to the human gene polymorphism rs6971 (TSPO A147T [2]; conclusion from wild-type versus A147T binding): low sensitivity

Structure (SMILES): CCN(Cc1ccccc1)C(=O)[C@@H]1CCCc2c1c1c(OC)cccc1n2CCF [(R)-6, N ‐Benzyl‐N‐ethyl‐9‐(2‐fluoroethyl)‐5‐methoxy‐2,3,4,9‐tetrahydro‐1H‐carbazole‐4‐carboxamide]
- Ki (rat heart TSPO): 22 nM

Structure (SMILES): CCN(CC)C(=O)C1CCCc2c1c1c(OC)cccc1n2CC[18F] (stereo not shown) [[^18F]5]
- binding affinity ratio LABs/HABs (TSPO A147T [5]): 5.1
- affinity for TSPO (in words) (TSPO [6]): good affinity
- brain uptake (TSPO [7]): good brain uptake
- specific binding (TSPO [7]): high specific binding

Structure (SMILES): CC[C@@H](C)N(C)C(=O)c1cc2ccccc2c(-c2ccccc2Cl)n1 [[^11C]1] [R‐1‐(2‐chlorophenyl)‐N‐methyl‐N‐(1‐methylpropyl)‐3‐isoquinoline carboxamide]
- affinity for TSPO (TSPO [6]; selective antagonist of TSPO): 9.3 nM

Structure (SMILES): CCN(CC)C(=O)[C@H]1CCCc2c1c1c(OC)cccc1n2CCF [(S)-5]
- Ki (human TSPO wild‐type): 11.3 ± 0.6 nM
- Ki (TSPO A147T [1]; HEK cell membranes, [^3H]1 10 nM, 4 °C, 90 min, mean±SEM, n=3, read-out: Ki (nM) at Ala147Thr LAB): 58.3 ± 6.4 nM
- Ratio LAB/HAB (TSPO A147T [2]): 5.1
